From patent US12076308B2, “Terpene control in scaleable cannabinoid medicinal formulations” (priority 2015, dated 2024)
Like-named read-outs stand apart in the source and are kept apart here.

Experiments:
pancreatic cancer = conditions: cited from earlier work; for tumor volume over time: mice, repeated injections, compared with control group curve CRTL; for effect on pancreatic cancer cells/tumors in mice: reported by Donadelli, high dosages of CB1 ligand
[1] = War veterans with PTSD given cannabinoid infused chocolates; type: in vivo, human; conditions: THC alone
Protocol: In a separate set of observations and tests, war veterans suffering from post-traumatic stress disorder (PTSD) were observed purchasing large amounts of un-tested hashish from local dispensaries on sale days. After observing this, samples of this hashish were tested. […] Veterans suffering from PTSD received cannabinoid infused chocolates with controlled dosages. This process identified that chocolates infused with 44 mg of THC and 4 mg of CBD were effective in treating these veterans PTSD. Information reported by veterans identified that many of them were also suffering from pain and had been consuming opiates to combat the pain. The opiates that these veterans were taking reportedly exacerbated PTSD symptoms. […] Patients of Laguna Honda Hospital in California were also provided medications that included both THC and CBD and reported benefit.

Structure (SMILES)	tumor volume over time (pancreatic cancer)	effect on pancreatic cancer cells/tumors in mice (pancreatic cancer)	effect on pancreatic cancer cells/tumors in mice (pancreatic cancer; listed as Rimonabant)	benefit when treating pain combined with PTSD, versus combined THC/CBD medication [1]	psychotic side effects associated with PTSD [1]
Nc1ccn([C@@H]2O[C@H](CO)[C@@H](O)C2(F)F)c(=O)n1 [Gemcitabine]	grew at even a slower rate	–	–	–	–
Cc1c(C(=O)NN2CCCCC2)nn(-c2ccc(Cl)cc2Cl)c1-c1ccc(Cl)cc1 [SR1, Rimonabant]	grew at a slower rate	reducing pancreatic cancer tumors	shrunk pancreatic cancer cells	–	–
CCCCCc1cc(O)c2c(c1)OC(C)(C)[C@@H]1CCC(C)=C[C@@H]21 [THC, tetrahydrocannabinol]	–	–	–	either not effective or provided limited benefits	increased psychotic side effects
